The conditions of series [1]: thanatin data from the reference; ref Fehlbaum et al. [1996]; cited from earlier work. The source says:
Table 1 Physicochemical properties of hybrid peptide | column: Isoelectric point (pI)

Series [2] has as its system S. aureus. To be noted: ref Fehlbaum et al. [1996]; Mandard et al. [1998]; cited from earlier work. From the text:
Thanatin, with a primary structure of […], is a type of antimicrobial peptide consisting of 21 amino acid residues. It is found in the insect Podisus maculiventris. […] It is a peptide consisting of 26 amino acids with a primary structure of […]. […] However, its clinical application is limited by its strong toxicity (mainly hemolytic activity), genotoxicity, and influence on gene expression (Gajski et al. [2016]; Wu et al. [2015]). To ...

Series [3] concerns S. aureus. The series can be described thus: In vitro antimicrobial experiments with the recombinant hybrid peptide. Type of series: cell-based, Staphylococcus aureus. To be noted: recombinant peptide from E. coli fusion expression after acid hydrolysis; not obtained pure. From the text: To expand the antimicrobial spectrum of thanatin and avoid the toxic effects of melittin, a hybrid antimicrobial peptide was designed according to a previous study (Blondelle and Houghten [1991]). Hemolysis was slightly affected by the removal of C-terminal amino acids of melittin, according to the previous study (Jahnsen et al. [2015]). Four alkaline amino acids (KRKR) are located at the C-terminal amino acids of melittin. The hybrid antimicrobial peptide that includes the full-length of thanatin and the C-terminal of melittin may reveal a stronger and safer antibacterial effect (Leonardo et al. [2012]). The hybrid antimicrobial peptide […]-AGP-[…] was designed using melittin’s C-terminal 15-amino acid mutant GLPL*[…] (L*wild type was A) as the N-terminus and thanatin as the C-terminus and by ligating with AGP to create a hybrid peptide that could inhibit S. aureus without hemolytic activity. The fusion expression of the hybrid peptide was carried out in Escherichia coli by using genetic engineering techniques, and the acid hydrolysis site AP was added to the N-terminus of the hybrid peptide. After the engineered bacteria were fermented, separated, acid-hydrolyzed, and purified, another proline residue was found on the N-terminus of the resulting peptide, that is, […]. […] However, pure hybrid peptide was not obtained due to problems associated with acid hydrolysis. […]

Consider “GSKKPVPIIYCNRRTGKCQRM [Thanatin, thanatin, antimicrobial peptide of 21 amino acid residues found in the insect Podisus maculiventris]”, for which the “Isoelectric point (pI)” value in series [1] is recorded as 10.48. Also, the “inhibition of S. aureus” value with S. aureus [2] is “does not inhibit S. aureus”.
Take “PGLPLLISWIKRKRQQGSKKPVPIIYCNRRTGKCQRM [hybrid peptide expressed as fusion in Escherichia coli, acid-hydrolyzed, with another proline on the N-terminus; not obtained pure]”: the “inhibition of growth of S. aureus” value in the series on S. aureus [3] is recorded as “inhibited the growth of S. aureus”.

The values are drawn from publication PMC6353975, “Design and activity study of a melittin–thanatin hybrid peptide” (AMB Express, 2019).
